Source: patent publication US11691949B2, “Quinoline sulfonamide compounds and their use as antibacterial agents” (OTAGO INNOVATION LIMITED, priority 2017, dated 2023)
≈ marks a conversion by molar mass, not a printed value. Structures can show the parent of a compound that is named as a salt. Where two headings read alike, the source gives them in different places.

How the values were obtained:
Assay type in all cases: cell-based
[1] = tested on: S. uberis ATCC 19436; test: MIC by broth microdilution, S. uberis; conditions: Streptococcus uberis
Protocol: (§1) Antibacterial susceptibility testing was performed in triplicate (biological) by measuring minimum inhibitory concentrations (MICs) by broth microdilution in 96-well flat bottom microtiter plates (ThermoFisher Scientific, New Zealand). S. uberis ATCC 19436, S. aureus ATCC 6538, or E. coli ATCC 10596 cells grown overnight were diluted to an OD600 of approximately 0.025, so that the final concentration of cells in the MIC assay was approximately 5×10^5 cfu/mL in media as follows: S. uberis; Todd Hewitt Broth (THB), S. aureus; Tryptic Soy Broth (TSB) and Cation Adjusted Muller Hinton Broth (CAMHB), and E. coli; Lysogeny Borth (LB) and CAMHB, before being dispensed into microtiter wells. As required additional sterile Zinc Sulphate (Heptahydrate) was supplemented into the media, so the final concentration was 50 μM. Test compounds were added to starting wells and two-fold serial dilutions were undertaken to generate a range of inhibitor concentrations at a final volume of 200 μl. Media and test compound-free (untreated) controls were included in each microtiter plate in triplicate. After 24 h incubation at 37° C. and 200 rpm, the OD600 of wells were read using a Varioskan Flash plate reader (ThermoFisher Scientific, New Zealand). The MIC was reported as the lowest concentration of the test compound for which no growth occurred, as determined by OD600 readings. The minimum bactericidal concentration (MBC) was determined using the Miles-Misra drop-plate method to measure the viability of cells in response to test compound challenge.

[2] = tested on: S. aureus ATCC 6538; test: MIC by broth microdilution, S. aureus; conditions: Staphylococcus aureus
Protocol: as §1

[3] = tested on: E. coli ATCC 10596; test: MIC by broth microdilution, E. coli; conditions: Escherichia coli
Protocol: as §1

[4] = ATCC19436, No Zinc, read-out: S. uberis ATCC 19436 MIC
[5] = ATCC19436, Zinc (50 μM), read-out: S. uberis ATCC 19436 MIC
[6] = ATCC6538, No Zinc, read-out: S. aureus ATCC 6538 MIC
[7] = ATCC6538, Zinc (50 μM), read-out: S. aureus ATCC 6538 MIC
[8] = ATCC 10536 / ATCC 10596, No Zinc, read-out: E. coli ATCC 10536 MIC
[9] = ATCC 10536 / ATCC 10596, Zinc (50 μM), read-out: E. coli ATCC 10536 MIC

Row | SMILES | MIC [1, 4] [µg/mL] | MIC [1, 5] [µg/mL] | MIC [2, 6] [µg/mL] | MIC [2, 7] [µg/mL] | MIC [3, 8] [µg/mL] | MIC [3, 9] [µg/mL] | MIC ([1]; ATCC19436, read-out: S. uberis ATCC 19436 MIC, No Zinc) [µg/mL] | MIC ([1]; ATCC19436, read-out: S. uberis ATCC 19436 MIC, Zinc (50 μM)) [µg/mL] | MIC ([2]; ATCC6538, read-out: S. aureus ATCC 6538 MIC, No Zinc) [µg/mL] | MIC ([2]; ATCC6538, read-out: S. aureus ATCC 6538 MIC, Zinc (50 μM)) [µg/mL] | MIC ([3]; ATCC 10536 / ATCC 10596, read-out: E. coli ATCC 10536 MIC, No Zinc) [µg/mL] | MIC ([3]; ATCC 10536 / ATCC 10596, read-out: E. coli ATCC 10536 MIC, Zinc (50 μM)) [µg/mL]
1 | CC(=O)NCCNCc1ccc2cccc(NS(=O)(=O)c3ccc(C(F)(F)F)cc3)c2n1 [ZDR148, N-(2-(((8-((4-(Trifluoromethyl)phenyl)sulfonamido)quinolin-2-yl)methyl)amino)ethyl)acetamide] | 64 (≈ 137 µM) | 1 (≈ 2.14 µM) | 64 (≈ 137 µM) | 128 (≈ 274 µM) | 128 (≈ 274 µM) | 256 (≈ 549 µM) | – | – | – | – | – | –
2 | CN(C)Cc1ccc2cccc(NS(=O)(=O)Cc3ccc(Cl)nc3)c2n1 [ZDR505, 1-(6-Chloropyridin-3-yl)-N-(2-((dimethylamino)methyl)quinolin-8-yl)methanesulfonamide] | > 256 | 0.25 (≈ 0.64 µM) | > 256 | 256 (≈ 655 µM) | > 256 | > 256 | – | – | – | – | – | –
3 | O=C(O)CNCc1ccc2cccc(NS(=O)(=O)c3ccc(C(F)(F)F)cc3)c2n1 [ZDR043, N-(2-(((Carboxymethyl)amino)methyl)quinolin-8-yl)-4-(trifluoromethyl)benzenesulfonamide trifluoroacetate] | – | – | – | – | – | – | > 256 | > 256 | > 256 | > 256 | > 256 | > 256
4 | CCNCc1ccc2cccc(NS(=O)(=O)c3ccc(C(F)(F)F)cc3)c2n1 [ZDR025, N-(2-((Ethylamino)methyl)quinolin-8-yl)-4-(trifluoromethyl)-benzenesulfonamide] | 64 (≈ 156 µM) | 0.125 (≈ 0.305 µM) | 32 (≈ 78.2 µM) | > 256 | 256 (≈ 625 µM) | ≥ 256 | – | – | – | – | – | –
5 | CN(C)Cc1ccc2cccc(NS(=O)(=O)c3ccccc3F)c2n1 [ZDR201, N-(2-((Dimethylamino)methyl)quinolin-8-yl)-2-fluorobenzenesulfonamide] | 128 (≈ 356 µM) | 0.0625 (≈ 0.174 µM) | > 256 | 32 (≈ 89 µM) | > 256 | > 256 | – | – | – | – | – | –
6 | O=S(=O)(Nc1cccc2ccc(CN3CCSCC3)nc12)c1ccc(C(F)(F)F)cc1 [ZDR088, N-(2-(Thiomorpholinomethyl)quinolin-8-yl)-4-(trifluoromethyl)benzenesulfonamide] | > 256 | 0.0625 (≈ 0.134 µM) | > 256 | > 256 | > 256 | > 256 | – | – | – | – | – | –
7 | CN(C)Cc1ccc2cccc(NS(=O)(=O)c3cccc4nsnc34)c2n1 [ZDR196, N-(2-((Dimethylamino)methyl)quinolin-8-yl)benzo[c][1,2,5]thiadiazole-4-sulfonamide] | 256 (≈ 641 µM) | 0.0625 (≈ 0.156 µM) | > 256 | 32 (≈ 80.1 µM) | > 256 | > 256 | – | – | – | – | – | –
8 | CN(C)Cc1ccc2cccc(NS(=O)(=O)CC3CCOCC3)c2n1 [ZDR504, N-(2-((Dimethylamino)methyl)quinolin-8-yl)-1-(tetrahydro-2H-pyran-4-yl)methanesulfonamide] | > 256 | 0.5 (≈ 1.38 µM) | > 256 | 256 (≈ 704 µM) | > 256 | > 256 | – | – | – | – | – | –
9 | CN(C)Cc1ccc2cccc(NS(=O)(=O)c3cccc(S(C)(=O)=O)c3)c2n1 [ZDR310, N-(2-((Dimethylamino)methyl)quinolin-8-yl)-3-(methylsulfonyl)benzenesulfonamide] | 256 (≈ 610 µM) | 4 (≈ 9.53 µM) | > 256 | > 256 | > 256 | > 256 | – | – | – | – | – | –
10 | O=S(=O)(Nc1cccc2ccc(/C=N/NCc3ccccc3)nc12)c1ccc(C(F)(F)F)cc1 [ZDR138, (E)-N-(2-((2-Benzylhydrazineylidene)methyl)quinolin-8-yl)-4-(trifluoromethyl)benzenesulfonamide] | > 256 | 0.5 (≈ 1.03 µM) | 128 (≈ 264 µM) | 128 (≈ 264 µM) | > 256 | > 256 | – | – | – | – | – | –
11 | CC(C)(C)OC(=O)N=C(NCCNCc1ccc2cccc(NS(=O)(=O)c3ccc(C(F)(F)F)cc3)c2n1)NC(=O)OC(C)(C)C [ZDR139, N-(2-(((N,N′-Bis-Boc-2-Guanidinoethyl)amino)methyl)quinolin-8-yl)-4-(trifluoromethyl)benzenesulfonamide] | 64 (≈ 96 µM) | 0.125 (≈ 0.187 µM) | 256 (≈ 384 µM) | 256 (≈ 384 µM) | > 256 | > 256 | – | – | – | – | – | –
12 | CN(C)Cc1ccc2cccc(NS(=O)(=O)c3cccc(N)c3)c2n1 [ZDR162, 3-Amino-N-(2-((dimethylamino)methyl)quinolin-8-yl)benzenesulfonamide] | 256 (≈ 718 µM) | 16 (≈ 44.9 µM) | > 256 | > 256 | > 256 | > 256 | – | – | – | – | – | –
13 | CN(C)Cc1ccc2cccc(NS(=O)(=O)c3ccc(Cl)cc3)c2n1 [ZDR064, 4-Chloro-N-(2-((dimethylamino)methyl)quinolin-8-yl)benzenesulfonamide] | > 256 | 0.0625 (≈ 0.166 µM) | 128 (≈ 341 µM) | 256 (≈ 681 µM) | > 256 | > 256 | – | – | – | – | – | –
14 | COc1cccc(S(=O)(=O)Nc2cccc3ccc(CN(C)C)nc23)c1 [ZDR314, N-(2-((Dimethylamino)methyl)quinolin-8-yl)-3-methoxybenzenesulfonamide] | 128 (≈ 345 µM) | 0.25 (≈ 0.673 µM) | 256 (≈ 689 µM) | > 256 | > 256 | > 256 | – | – | – | – | – | –
15 | CN(C)Cc1ccc2cccc(NS(=O)(=O)c3cc(F)c(F)cc3F)c2n1 [ZDR337, N-(2-((Dimethylamino)methyl)quinolin-8-yl)-2,4,5-trifluorobenzenesulfonamide] | 256 (≈ 647 µM) | 0.0625 (≈ 0.158 µM) | > 256 | > 256 | > 256 | > 256 | – | – | – | – | – | –
16 | CN(C)Cc1ccc2cccc(NS(=O)(=O)c3cccc(Cl)c3Cl)c2n1 [ZDR336, 2,3-Dichloro-N-(2-((dimethylamino)methyl)quinolin-8-yl)benzenesulfonamide] | 64 (≈ 156 µM) | 0.0625 (≈ 0.152 µM) | 64 (≈ 156 µM) | 128 (≈ 312 µM) | > 256 | > 256 | – | – | – | – | – | –
17 | CN(C)Cc1ccc2cccc(NS(=O)(=O)c3ccc(C(C)(C)C)cc3)c2n1 [ZDR307, 4-(tert-Butyl)-N-(2-((dimethylamino)methyl)quinolin-8-yl)benzenesulfonamide] | > 256 | 0.0625 (≈ 0.157 µM) | > 256 | > 256 | > 256 | > 256 | – | – | – | – | – | –
18 | COC(=O)Nc1ccc(S(=O)(=O)Nc2cccc3ccc(CN(C)C)nc23)cc1 [ZDR332, Methyl (4-(N-(2-((dimethylamino)methyl)quinolin-8-yl)sulfamoyl)phenyl)carbamate] | 256 (≈ 618 µM) | 2 (≈ 4.83 µM) | > 256 | > 256 | > 256 | > 256 | – | – | – | – | – | –
